Measured values as given in PMC8565993 (International journal for parasitology, 2020).
Read-outs that look alike come from different tables or passages of the source. One block for each compound: values may come before it.

Legend:
[1] = biological target: T1, CpCDPK1 (Cryptosporidium parvum, UniProt A3FQ16); assay type: biochemical; conditions: read-out: CpCDPK1 IC50
T1 sequence (A3FQ16 1-538): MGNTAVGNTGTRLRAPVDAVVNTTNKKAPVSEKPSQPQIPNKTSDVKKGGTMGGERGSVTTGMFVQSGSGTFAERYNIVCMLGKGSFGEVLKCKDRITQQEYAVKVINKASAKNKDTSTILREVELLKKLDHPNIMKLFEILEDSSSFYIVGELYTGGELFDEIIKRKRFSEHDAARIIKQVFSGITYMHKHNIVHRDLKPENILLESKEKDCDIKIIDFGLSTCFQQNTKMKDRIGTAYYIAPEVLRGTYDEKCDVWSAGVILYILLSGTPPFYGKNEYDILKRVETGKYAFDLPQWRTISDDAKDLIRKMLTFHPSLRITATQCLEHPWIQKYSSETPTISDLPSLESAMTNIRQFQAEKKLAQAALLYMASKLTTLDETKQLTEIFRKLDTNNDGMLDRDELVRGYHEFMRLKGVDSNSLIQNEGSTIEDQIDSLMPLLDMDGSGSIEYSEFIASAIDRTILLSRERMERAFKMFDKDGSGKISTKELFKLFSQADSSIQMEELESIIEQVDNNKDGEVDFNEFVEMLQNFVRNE

[2] = test system: Toxoplasma gondii; experiment: Toxoplasma gondii in vitro growth inhibition; assay type: cell-based; conditions: read-out: Toxoplasma gondii EC50; 50% reduction in growth
[3] = test system: Cryptosporidium parvum; experiment: Cryptosporidium parvum in vitro growth inhibition; assay type: cell-based; conditions: read-out: Cryptosporidium parvum EC50; 50% reduction in growth
[4] = biological target: T2, TgCDPK1 (Toxoplasma gondii, UniProt Q9BJF5); assay type: biochemical; conditions: read-out: TgCDPK1 IC50
T2 sequence (Q9BJF5 1-507): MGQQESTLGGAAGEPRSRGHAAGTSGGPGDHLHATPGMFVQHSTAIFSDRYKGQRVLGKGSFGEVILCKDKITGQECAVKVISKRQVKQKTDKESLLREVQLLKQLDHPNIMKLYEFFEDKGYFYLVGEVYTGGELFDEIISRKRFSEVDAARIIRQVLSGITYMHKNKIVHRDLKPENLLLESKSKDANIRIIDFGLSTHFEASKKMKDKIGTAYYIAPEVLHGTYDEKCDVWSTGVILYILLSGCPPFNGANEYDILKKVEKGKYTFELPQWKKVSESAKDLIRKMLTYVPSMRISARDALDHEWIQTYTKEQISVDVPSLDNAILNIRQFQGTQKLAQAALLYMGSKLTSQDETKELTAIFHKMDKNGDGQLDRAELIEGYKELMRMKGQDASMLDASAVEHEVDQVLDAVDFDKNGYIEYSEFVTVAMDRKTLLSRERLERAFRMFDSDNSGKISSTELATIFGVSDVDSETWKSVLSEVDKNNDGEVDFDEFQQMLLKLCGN

[5] = biological target: T3, hERG (Homo sapiens, UniProt Q12809); experiment: hERG thallium flux assay
[6] = test system: Cryptosporidium parvum; experiment: C. parvum; assay type: in vivo, mouse; conditions: >2 log unit reduction in infection
[7] = cited from earlier work
[8] = test system: Cryptosporidium parvum; conditions: ref Arnold et al., cited from earlier work
[9] = test system: P-glycoprotein (P-gp); conditions: compared with efficacious compounds such as BKI-1369; ref Arnold et al., 2019; cited from earlier work
[10] = assay type: in vivo
[11] = QD in mice
[12] = Plasma exposure after oral dosing in mice; assay type: in vivo, mouse; conditions: at the toxic dose of the same table row
[13] = cited from earlier work; remark: listed apart in the source
[14] = biological target: T3, hERG; experiment: hERG automated patch clamp; assay type: cell-based; conditions: read-out: hERG Qpatch IC50
[15] = Toxicity and safety in calves; assay type: in vivo, calf; conditions: 3X maximal therapeutic doses; unpublished data
[16] = assay type: in vivo; conditions: mouse pregnancy safety dose 50 mg/kg
[17] = test system: Toxoplasma gondii; experiment: T. gondii mouse efficacy model; assay type: in vivo; conditions: QD
[18] = biological target: T4, Human PKD3 (Homo sapiens, UniProt O94806); experiment: Human PKD3 kinase inhibition; assay type: biochemical; conditions: read-out: Human PKD3 IC50
T4 sequence (O94806 1-890): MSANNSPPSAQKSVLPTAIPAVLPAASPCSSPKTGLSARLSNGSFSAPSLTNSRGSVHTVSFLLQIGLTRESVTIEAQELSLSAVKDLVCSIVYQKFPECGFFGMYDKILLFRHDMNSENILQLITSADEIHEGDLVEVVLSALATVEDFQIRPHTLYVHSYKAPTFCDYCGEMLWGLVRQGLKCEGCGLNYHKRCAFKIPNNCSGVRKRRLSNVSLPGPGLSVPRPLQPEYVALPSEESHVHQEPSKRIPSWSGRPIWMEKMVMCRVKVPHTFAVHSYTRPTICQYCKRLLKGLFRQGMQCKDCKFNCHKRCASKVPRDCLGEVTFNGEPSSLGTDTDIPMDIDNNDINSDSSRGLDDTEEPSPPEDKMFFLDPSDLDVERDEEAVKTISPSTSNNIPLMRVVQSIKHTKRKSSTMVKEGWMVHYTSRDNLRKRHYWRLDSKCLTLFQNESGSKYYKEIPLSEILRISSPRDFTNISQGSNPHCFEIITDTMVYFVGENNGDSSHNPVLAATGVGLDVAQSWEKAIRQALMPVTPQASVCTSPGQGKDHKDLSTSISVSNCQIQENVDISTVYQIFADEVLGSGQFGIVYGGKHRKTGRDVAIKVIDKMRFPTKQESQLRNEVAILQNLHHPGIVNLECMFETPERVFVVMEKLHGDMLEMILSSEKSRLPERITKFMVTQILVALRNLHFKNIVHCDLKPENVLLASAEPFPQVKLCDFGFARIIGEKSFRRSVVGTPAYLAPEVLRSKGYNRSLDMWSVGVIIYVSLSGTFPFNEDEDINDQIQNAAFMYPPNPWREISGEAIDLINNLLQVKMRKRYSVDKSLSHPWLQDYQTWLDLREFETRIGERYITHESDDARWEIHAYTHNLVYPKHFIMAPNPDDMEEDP

[19] = mice, 30 mg/kg oral dose, ref Hulverson et al., 2017a, 30 mg/kg
[20] = mice, 30 mg/kg oral dose, ref Hulverson et al., 2017a, listed as 1369, 30 mg/kg

T3 sequence (Q12809 whole entry): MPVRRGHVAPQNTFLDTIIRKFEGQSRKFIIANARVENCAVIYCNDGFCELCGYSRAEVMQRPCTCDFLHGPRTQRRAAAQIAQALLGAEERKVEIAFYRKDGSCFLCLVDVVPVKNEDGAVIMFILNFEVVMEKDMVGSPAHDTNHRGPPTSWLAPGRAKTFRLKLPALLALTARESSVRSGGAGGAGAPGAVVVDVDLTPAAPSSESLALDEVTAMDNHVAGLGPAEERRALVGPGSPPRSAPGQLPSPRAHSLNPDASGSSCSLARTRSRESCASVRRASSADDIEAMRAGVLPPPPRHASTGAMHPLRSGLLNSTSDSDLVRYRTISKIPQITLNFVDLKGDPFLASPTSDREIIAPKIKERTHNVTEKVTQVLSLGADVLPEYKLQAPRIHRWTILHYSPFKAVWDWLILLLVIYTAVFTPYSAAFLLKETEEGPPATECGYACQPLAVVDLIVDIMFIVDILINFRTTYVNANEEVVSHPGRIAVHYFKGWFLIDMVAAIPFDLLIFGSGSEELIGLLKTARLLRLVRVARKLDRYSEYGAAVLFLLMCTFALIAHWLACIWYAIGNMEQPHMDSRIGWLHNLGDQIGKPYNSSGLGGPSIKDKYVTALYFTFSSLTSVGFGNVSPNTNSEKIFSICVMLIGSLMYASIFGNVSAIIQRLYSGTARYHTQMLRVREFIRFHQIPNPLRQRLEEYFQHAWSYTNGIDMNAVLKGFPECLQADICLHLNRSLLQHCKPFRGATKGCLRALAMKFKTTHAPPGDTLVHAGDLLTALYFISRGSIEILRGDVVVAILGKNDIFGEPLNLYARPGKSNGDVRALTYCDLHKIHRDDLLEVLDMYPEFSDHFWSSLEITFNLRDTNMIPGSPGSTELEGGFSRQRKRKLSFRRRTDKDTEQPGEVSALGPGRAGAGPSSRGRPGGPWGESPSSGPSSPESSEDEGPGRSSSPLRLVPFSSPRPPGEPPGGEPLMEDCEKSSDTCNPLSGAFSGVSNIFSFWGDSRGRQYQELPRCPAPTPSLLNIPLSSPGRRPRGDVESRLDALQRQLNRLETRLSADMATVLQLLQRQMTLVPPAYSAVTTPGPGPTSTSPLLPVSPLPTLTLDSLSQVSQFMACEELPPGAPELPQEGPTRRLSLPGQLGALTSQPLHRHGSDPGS

IC50 [1]: 2.8 nM
EC50 [3]: 1210 nM
SMILES: CCOc1ccc2cc(-c3nn(C4CCOCC4)c(N)c3C(N)=O)ccc2n1 [BKI-1841]
EC50 [2]: 130 nM
IC50 [4]: 30.1 nM

SMILES: CCOc1ccc2cc(-c3nn(CC4CCN(C)CC4)c4ncnc(N)c34)ccc2c1 [BKI-1294]
IC50 [5]: 790 nM
hERG Thallium Flux IC50 [5]: submicromolar
C. parvum efficacious dose in mice ([6]; QD): 100 mg/kg QD
Levels reached in tissues of the GI tract ([7]; infected mice, ref Arnold et al., 2017): reached high levels in all tissues of the GI tract
Efficacy against Cryptosporidium infection in mice [8]; 2017: significantly reduced infection
EC50 [2]: 137 nM
EC50 [3]: 2220 nM

SMILES: CCOc1ccc2cc(-c3nn(CC4CCNCC4)c4ncnc(N)c34)ccc2n1 [BKI-1318]
Efficacy against Cryptosporidium when the P-gp pumps were inhibited ([8]; P-gp pumps inhibited, 2019): greatly improved
Efficacy against Cryptosporidium [8]; 2019: failed to be efficacious
Efflux ratio [9]: much higher efflux ratio

SMILES: CCOc1ccc2cc(-c3nn(CC4CCN(C)CC4)c4ncnc(N)c34)ccc2n1 [BKI-1369]
Thallium flux IC50 relative to that of BKI-1294 ([5]; higher IC50 than BKI-1294): > 10 fold
C. parvum efficacious dose in mice ([6]; QD): 30 mg/kg QD
IC50 [1]: 0.9 nM
Dog CV safety: ↓dP/dt (plasma conc.) ([10]; anesthetized dog, decreased cardiac contractility): 9.3 µM
Dog CV safety: ↑SVR (plasma conc.) ([10]; anesthetized dog, increased systemic vascular resistance): 129 µM
Dog CV safety: complete CV collapse (plasma conc.) ([10]; dog, in vivo): > 50 µM
Dog CV safety: ↑QTcV (plasma conc.) ([10]; dog, in vivo): ~1.7 µM
Dog CV safety: ↓CO (plasma conc.) ([10]; dog, in vivo): 9.3 µM
Dog CV safety: ↓HR (plasma conc.) ([10]; dog, in vivo): 50 µM
Observed maximum gastrointestinal tissue exposure after single dose, ascending colon [7, 19]: 23 µM
Observed maximum gastrointestinal tissue exposure after single dose, cecum [7, 19]: 20 µM
Observed maximum gastrointestinal tissue exposure after single dose, duodenum [7, 19]: > 76 µM
Observed maximum gastrointestinal tissue exposure after single dose, jejunum/ileum [7, 19]: 39 µM
Observed maximum gastrointestinal tissue exposure after single dose, cecum [7, 20]: 20 ± 6 µM
Observed maximum gastrointestinal tissue exposure after single dose, duodenum [7, 20]: 76 ± 41 µM
Dose at which toxicity was observed [11]: 300 (QD in mice) mg/kg
Observed maximum plasma exposure at toxic dose [12]: 8.3 ± 0.2 µM
Toxicity on repeated dosing ([13]; 50 mg/kg for 5 days, ref Hulverson et al., 2017a): multiple signs of toxicity
Daily dose with no signs of GI side effects ([13]; mouse, in vivo): up to 150 mg/kg
IC50 [14]: ~1000 nM
IC50 ([14]; listed as 1369): 970 nM
EC50 [3]: 2500 nM
IC50 [4]: 6.1 nM
Cardiovascular effects in calves [15]: have not been detected

SMILES: CCOc1ccc2cc(-c3nn(C(C)(C)C)c(N)c3C(N)=O)cnc2c1 [BKI-1517]
IC50 [5]: > 30000 nM
C. parvum efficacious dose in mice ([6]; BID): 30 mg/kg BID
Fertility (pregnant dams) [16]: 2 of 7
Total pups born [16]: 0
T. gondii efficacious dose in mice ([17]; >2 log unit reduction in infection): 60 mg/kg QD
T. gondii efficacious dose in mice ([17]; ≥2 log reduction in infection): 60 mg/kg QD
EC50 [2]: 257 nM
IC50 [14]: > 16700 nM
EC50 [3]: 649 nM
IC50 [18]: 1110 nM
